In data set [1] the target is KCNE1 (Homo sapiens, UniProt P15382). In words: Selectivity interaction (Panel of kinases, GPCRs, ion channels and transporters (enzymatic assay)) EUB0000266bCl KCNE1.
The target in data set [2] is T1, Activin receptor type-1 (Homo sapiens) (UniProt Q04771).
T1 sequence (whole entry): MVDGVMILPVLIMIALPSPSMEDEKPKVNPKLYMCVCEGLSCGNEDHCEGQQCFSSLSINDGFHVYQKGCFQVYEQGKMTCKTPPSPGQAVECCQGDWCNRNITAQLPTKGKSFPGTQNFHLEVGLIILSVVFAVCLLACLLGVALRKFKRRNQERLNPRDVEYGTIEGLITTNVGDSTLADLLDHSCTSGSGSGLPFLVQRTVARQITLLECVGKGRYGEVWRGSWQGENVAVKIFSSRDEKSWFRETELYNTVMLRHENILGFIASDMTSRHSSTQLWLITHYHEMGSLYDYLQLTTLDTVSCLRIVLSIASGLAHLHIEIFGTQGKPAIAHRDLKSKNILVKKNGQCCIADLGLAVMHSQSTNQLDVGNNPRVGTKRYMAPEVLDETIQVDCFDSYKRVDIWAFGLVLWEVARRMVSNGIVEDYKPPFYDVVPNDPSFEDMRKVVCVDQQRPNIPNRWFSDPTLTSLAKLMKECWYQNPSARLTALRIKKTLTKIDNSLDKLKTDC
In words: Selectivity interaction (ProQinase) EUB0000171b ACVR1.

The target in data set [3] is Ribosomal protein S6 kinase alpha-4 (Homo sapiens) (UniProt O75676). Nature of the data set: Selectivity interaction (ProQinase) EUB0000171b RPS6KA4.
For data set [4], the target named is Ribosomal protein S6 kinase alpha-6 (Homo sapiens, UniProt Q9UK32). The following applies: at 10 µM.
The target of data set [5] is T2, Activated CDC42 kinase 1 (Homo sapiens, UniProt Q07912). The following applies: at 10 µM.
Data set [6] concerns the target Tyrosine-protein kinase SYK (Homo sapiens, UniProt P43405). Nature of the data set: Selectivity interaction (KinaseProfiler screening (Millipore)) EUB0000601a SYK. The following applies: at 3 µM.
In data set [7] the target is STE20/SPS1-related proline-alanine-rich protein kinase (Homo sapiens) (UniProt Q9UEW8). In words: Selectivity interaction (KinomeScan (DiscoverX)) EUB0000655a STK39. The settings on record: at 10 µM.
Data set [8] addresses Phosphatidylinositol 4-phosphate 3-kinase C2 domain-containing subunit beta (Homo sapiens) (UniProt O00750). Nature of the data set: Selectivity interaction (KinomeScan (DiscoverX)) EUB0000045b PIK3C2B.
In data set [9] the target is T2, Activated CDC42 kinase 1. In words: Selectivity interaction (KinomeScan (DiscoverX)) EUB0000045b TNK2.
The target of data set [10] is Mitogen-activated protein kinase 11 (Homo sapiens) (UniProt Q15759). Nature of the data set: Selectivity interaction (Kinase panel (Z-LYTE Assay)) EUB0001632a MAPK11. The following applies: at 10 µM.
In data set [11] the target is Ribosomal protein S6 kinase beta-2 (Homo sapiens) (UniProt Q9UBS0). In words: Selectivity interaction (Kinase panel (Z-LYTE Assay)) EUB0001632a RPS6KB2. The settings on record: at 10 µM.
The target of data set [12] is T3, Histone-lysine N-methyltransferase SETD7 (Homo sapiens) (UniProt Q8WTS6).
T3 sequence (whole entry): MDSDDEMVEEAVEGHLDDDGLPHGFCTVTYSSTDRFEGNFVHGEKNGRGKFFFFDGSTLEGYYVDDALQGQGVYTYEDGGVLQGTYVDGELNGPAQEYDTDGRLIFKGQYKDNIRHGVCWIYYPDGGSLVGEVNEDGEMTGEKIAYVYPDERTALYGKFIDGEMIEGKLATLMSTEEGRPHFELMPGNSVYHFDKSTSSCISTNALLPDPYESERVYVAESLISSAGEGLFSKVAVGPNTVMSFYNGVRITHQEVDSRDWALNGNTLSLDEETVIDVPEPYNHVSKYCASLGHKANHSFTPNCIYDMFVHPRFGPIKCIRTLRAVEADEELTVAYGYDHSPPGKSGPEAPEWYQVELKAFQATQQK
The following applies: at 10 µM.

In data set [13] the target is Tyrosine-protein kinase receptor Tie-1 (Homo sapiens) (UniProt P35590). In words: Selectivity interaction (KinomeScan (DiscoverX)) EUB0000229b TIE1. The following applies: at 10 µM.
Data set [14] concerns the target T4, Megakaryocyte-associated tyrosine-protein kinase (Homo sapiens) (UniProt P42679).
T4 sequence (whole entry): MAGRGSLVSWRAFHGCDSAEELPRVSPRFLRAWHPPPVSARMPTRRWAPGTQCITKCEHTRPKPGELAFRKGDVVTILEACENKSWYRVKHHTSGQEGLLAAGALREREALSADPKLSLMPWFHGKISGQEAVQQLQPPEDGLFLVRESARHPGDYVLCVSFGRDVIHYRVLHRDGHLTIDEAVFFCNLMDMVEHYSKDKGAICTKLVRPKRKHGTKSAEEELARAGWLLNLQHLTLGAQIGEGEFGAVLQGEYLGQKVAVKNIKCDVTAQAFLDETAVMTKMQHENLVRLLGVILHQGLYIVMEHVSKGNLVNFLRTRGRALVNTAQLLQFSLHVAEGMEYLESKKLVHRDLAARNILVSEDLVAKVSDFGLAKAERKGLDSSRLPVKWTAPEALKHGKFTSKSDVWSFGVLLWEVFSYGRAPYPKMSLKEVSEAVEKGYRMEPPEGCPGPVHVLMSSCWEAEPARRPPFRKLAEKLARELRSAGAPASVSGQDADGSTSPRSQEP
Nature of the data set: Selectivity interaction (KinomeScan (DiscoverX)) EUB0001619a MATK. The settings on record: at 1 µM.

T2 sequence (Q07912 whole entry, looked up): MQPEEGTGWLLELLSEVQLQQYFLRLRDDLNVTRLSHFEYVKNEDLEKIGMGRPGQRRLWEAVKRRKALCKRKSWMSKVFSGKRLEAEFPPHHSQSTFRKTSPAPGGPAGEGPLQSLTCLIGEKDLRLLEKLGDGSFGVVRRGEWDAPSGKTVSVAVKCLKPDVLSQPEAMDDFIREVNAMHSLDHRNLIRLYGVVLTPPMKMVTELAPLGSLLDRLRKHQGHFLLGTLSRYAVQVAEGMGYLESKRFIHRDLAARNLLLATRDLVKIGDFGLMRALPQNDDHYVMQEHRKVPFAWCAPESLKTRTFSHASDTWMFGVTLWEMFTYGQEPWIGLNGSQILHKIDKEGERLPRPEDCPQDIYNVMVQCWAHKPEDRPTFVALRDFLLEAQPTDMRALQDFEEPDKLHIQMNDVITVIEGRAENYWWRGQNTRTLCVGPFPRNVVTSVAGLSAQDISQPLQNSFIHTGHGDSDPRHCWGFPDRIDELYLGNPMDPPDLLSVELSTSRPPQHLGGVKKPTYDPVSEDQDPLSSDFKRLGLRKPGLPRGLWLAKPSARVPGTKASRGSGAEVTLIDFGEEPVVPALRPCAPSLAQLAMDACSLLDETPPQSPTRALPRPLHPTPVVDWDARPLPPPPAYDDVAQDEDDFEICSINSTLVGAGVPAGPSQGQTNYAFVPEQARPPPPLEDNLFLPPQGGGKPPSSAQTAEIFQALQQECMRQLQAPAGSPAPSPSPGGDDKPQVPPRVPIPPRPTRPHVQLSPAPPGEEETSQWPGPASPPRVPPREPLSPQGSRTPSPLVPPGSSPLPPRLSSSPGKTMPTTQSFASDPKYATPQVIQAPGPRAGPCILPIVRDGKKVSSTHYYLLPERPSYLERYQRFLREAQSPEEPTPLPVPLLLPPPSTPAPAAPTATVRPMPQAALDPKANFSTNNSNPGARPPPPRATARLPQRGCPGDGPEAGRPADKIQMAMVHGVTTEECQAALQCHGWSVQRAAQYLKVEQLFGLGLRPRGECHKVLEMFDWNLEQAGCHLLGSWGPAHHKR
Sequence of Phosphatidylinositol 4-phosphate 3-kinase C2 domain-containing subunit beta (Homo sapiens) (O00750 whole entry, the tested form may be a part): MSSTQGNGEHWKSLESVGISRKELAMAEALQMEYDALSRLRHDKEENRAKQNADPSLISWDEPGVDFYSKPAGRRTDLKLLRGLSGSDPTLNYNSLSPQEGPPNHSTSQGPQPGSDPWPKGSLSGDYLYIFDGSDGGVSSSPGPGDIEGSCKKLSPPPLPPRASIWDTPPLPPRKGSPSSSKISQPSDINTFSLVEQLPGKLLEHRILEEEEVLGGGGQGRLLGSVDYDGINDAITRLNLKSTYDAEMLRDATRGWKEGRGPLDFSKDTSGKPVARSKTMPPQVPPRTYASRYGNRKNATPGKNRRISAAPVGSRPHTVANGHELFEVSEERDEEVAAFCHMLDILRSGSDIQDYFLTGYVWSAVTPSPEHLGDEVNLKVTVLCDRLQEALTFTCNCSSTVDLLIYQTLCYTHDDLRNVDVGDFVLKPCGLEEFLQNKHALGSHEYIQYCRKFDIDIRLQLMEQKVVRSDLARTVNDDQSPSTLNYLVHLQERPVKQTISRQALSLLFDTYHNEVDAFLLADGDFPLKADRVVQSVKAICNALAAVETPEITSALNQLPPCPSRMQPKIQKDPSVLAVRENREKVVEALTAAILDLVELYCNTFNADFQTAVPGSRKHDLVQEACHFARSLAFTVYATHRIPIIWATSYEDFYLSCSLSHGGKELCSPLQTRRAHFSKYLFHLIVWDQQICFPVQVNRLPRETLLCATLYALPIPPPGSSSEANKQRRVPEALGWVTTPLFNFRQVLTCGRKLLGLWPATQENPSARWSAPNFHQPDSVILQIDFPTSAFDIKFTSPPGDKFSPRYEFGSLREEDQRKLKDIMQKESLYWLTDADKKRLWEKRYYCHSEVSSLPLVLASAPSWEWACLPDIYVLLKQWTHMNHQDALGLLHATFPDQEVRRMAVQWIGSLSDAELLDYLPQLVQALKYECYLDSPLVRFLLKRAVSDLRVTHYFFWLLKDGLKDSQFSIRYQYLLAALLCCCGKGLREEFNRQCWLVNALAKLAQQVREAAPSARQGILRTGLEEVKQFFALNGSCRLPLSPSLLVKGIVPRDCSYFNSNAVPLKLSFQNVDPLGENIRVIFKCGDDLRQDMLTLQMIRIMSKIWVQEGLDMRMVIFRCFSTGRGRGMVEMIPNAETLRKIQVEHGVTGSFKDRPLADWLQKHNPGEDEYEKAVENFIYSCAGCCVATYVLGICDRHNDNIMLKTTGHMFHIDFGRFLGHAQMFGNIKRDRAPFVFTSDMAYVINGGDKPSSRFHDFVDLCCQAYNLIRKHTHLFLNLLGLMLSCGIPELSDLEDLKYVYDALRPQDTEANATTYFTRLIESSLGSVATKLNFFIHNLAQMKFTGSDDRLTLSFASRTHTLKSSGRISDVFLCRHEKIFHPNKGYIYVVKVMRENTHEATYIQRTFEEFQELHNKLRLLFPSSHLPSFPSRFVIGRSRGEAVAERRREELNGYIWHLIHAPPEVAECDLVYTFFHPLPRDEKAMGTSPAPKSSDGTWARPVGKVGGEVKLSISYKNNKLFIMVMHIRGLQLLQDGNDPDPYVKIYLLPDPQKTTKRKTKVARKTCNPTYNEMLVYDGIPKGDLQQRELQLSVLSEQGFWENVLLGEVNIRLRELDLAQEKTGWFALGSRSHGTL
Sequence of Ribosomal protein S6 kinase alpha-4 (Homo sapiens) (O75676 whole entry, looked up): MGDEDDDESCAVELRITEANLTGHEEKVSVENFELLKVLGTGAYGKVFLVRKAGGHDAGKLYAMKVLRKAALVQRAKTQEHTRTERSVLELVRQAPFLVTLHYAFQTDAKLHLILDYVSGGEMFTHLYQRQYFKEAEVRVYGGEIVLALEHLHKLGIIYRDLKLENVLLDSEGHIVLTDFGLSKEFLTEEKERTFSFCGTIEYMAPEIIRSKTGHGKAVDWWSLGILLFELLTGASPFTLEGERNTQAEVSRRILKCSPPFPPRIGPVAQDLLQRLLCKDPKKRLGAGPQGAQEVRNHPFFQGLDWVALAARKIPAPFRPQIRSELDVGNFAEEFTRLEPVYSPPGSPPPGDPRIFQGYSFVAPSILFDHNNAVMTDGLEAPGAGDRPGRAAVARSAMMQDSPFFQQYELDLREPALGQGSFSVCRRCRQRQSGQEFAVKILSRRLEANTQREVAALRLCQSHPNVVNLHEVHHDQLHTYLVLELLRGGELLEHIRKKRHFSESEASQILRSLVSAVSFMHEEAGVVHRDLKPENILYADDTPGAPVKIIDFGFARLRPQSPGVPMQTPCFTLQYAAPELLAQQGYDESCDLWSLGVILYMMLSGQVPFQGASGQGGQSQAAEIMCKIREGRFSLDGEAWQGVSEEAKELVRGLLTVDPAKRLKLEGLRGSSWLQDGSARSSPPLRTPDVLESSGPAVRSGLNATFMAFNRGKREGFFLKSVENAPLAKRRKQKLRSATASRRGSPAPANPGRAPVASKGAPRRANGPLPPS
Sequence of Ribosomal protein S6 kinase alpha-6 (Q9UK32 whole entry): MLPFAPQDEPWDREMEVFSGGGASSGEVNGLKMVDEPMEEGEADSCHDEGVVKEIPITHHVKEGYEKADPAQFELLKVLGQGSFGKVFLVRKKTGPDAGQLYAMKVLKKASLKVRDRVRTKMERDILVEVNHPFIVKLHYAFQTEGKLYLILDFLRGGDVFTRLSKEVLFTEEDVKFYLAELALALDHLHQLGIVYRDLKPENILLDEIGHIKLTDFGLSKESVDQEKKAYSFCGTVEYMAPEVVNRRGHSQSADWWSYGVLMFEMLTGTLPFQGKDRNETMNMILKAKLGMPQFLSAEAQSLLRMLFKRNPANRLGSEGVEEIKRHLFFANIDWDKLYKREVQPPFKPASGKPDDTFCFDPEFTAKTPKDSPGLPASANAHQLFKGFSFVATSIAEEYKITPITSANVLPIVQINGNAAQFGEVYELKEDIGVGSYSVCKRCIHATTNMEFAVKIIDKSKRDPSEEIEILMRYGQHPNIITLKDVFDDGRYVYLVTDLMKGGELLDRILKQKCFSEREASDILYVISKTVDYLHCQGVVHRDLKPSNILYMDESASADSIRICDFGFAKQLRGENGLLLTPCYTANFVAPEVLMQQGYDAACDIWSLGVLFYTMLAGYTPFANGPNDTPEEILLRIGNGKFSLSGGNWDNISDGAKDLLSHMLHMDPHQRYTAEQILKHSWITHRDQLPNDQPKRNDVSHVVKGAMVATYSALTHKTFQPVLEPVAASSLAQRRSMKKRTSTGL
Sequence of Mitogen-activated protein kinase 11 (Homo sapiens) (Q15759 whole entry): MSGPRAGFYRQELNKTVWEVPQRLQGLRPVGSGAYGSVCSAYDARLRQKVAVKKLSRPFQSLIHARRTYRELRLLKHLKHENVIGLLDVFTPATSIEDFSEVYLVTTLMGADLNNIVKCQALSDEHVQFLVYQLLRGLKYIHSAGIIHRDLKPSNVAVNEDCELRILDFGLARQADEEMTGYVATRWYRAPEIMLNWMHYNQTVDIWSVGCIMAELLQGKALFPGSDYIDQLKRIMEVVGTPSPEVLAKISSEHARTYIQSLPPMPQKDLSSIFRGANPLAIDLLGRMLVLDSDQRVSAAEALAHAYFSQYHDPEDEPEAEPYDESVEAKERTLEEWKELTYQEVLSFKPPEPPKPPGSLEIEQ

As to `CCn1c(-c2nc3cc(C(=O)N4CCCC(N)C4)ccc3n2C)cc2ccccc21` (stereo not drawn), the XC50 in [1] was more than 25.1 µM.

With `C=CC(=O)Nc1cccc(C(=O)Nc2ccc(Nc3cc(-c4[nH]c(SC)nc4C)ccn3)cc2)c1`, the % of control in data set [2] (at 1 µM) worked out at 85%; in data set [2] (at 5 µM) it was 54%; in data set [3] (at 1 µM), 97%; in data set [3] (at 5 µM) it was 94%.

As for `Cc1cc([C@@H](C)Nc2ccccc2C(=O)O)c2nc(N3CCOCC3)cc(=O)n2c1` [AZD-6482], the % of control is 71% in [4] and 100% in [5].

Turning to `CCc1cc(Nc2nccc(-c3c(-c4ccc(OC)c(C(=O)Nc5c(F)cccc5F)c4)nc4ccccn34)n2)c(OC)cc1N1CCC(N2CCN(S(C)(=O)=O)CC2)CC1`, the % of inhibition in [6] was 50%.

`CN(C)CCOc1ccc(-c2nc(-c3ccncc3)c(-c3ccc4c(c3)CC/C4=N\O)[nH]2)cc1`: the % of control in data set [7] worked out at 100%.

Regarding `C=CC(=O)Nc1cc(-n2c(=O)ccc3cnc4ccc(-c5ccc(NS(C)(=O)=O)cc5)cc4c32)ccc1C`, the % of control in [8] (at 1 µM) worked out at 100%; in data set [8] (at 10 µM), 40%; in data set [9] (at 1 µM), 100%; in data set [9] (at 10 µM), 100%.

On to `Cn1cc(-n2cnc3c(NCc4nc5cc(Cl)c(Cl)cc5[nH]4)nc(N4CCOCC4)nc32)cn1`, for which the % of control is 1.54% in data set [10] and 3.53% in data set [11].

`CNCCN1CCC(c2cc(CN(C)C(=O)c3cccc(Oc4ccccc4)c3)ccn2)CC1`: in [12], the % activity was more than 90%.

In data set [13], `COc1cc(N(C)c2ccnc3ccc(C(F)(F)F)cc23)cc(OC)c1OC` gave a % binding of 75%.

Regarding `N#Cc1cccc(-c2c[nH]c3ncnc(N4CCOCC4)c23)c1`, the % of control in data set [14] turned out to be 82%.

Source of the values: ChEMBL document CHEMBL5465560, “Selectivity Literature for EUbOPEN Chemogenomic Library” (2024).
